According to patent US20110055943A1, “NOVEL THERAPEUTIC TARGETS IN INFLAMMATORY BOWEL DISEASE” (SALIX PHARMACEUTICALS, LTD., priority 2007, published 2011):
pEC50: −log10 of the molar value.

Legend:
[1] = tested on: CYP3A4; conditions: two clinical studies; cited from earlier work
[2] = tested on: PXR target genes (CYP3A11, GSTA1, MRP2, OATP2); test: qPCR analysis of PXR target genes in hPXR mice
Description: RIF, a specific human PXR ligand, was used as positive control at 25 mg/kg/day (p.o.) for 3 days. […] Liver and small intestine were collected and frozen at −80° C. for further analysis.
RNA was extracted from different tissues using TRIzol reagent (Invitrogen, Carlsbad, Calif.). qPCR was performed using cDNA generated from 1 μg total RNA with SuperScript II Reverse Transcriptase kit (Invitrogen). PCR reactions were carried out using SYBR green PCR master mix (SuperArray) in an ABI Prism 7900HT Sequence Detection System (Applied Biosystems, Foster City, Calif.). Values were quantified using the Comparative CT method, and samples normalized to β-actin.

[3] = tested on: CYP3A4; conditions: human hepatocytes; cited from earlier work
[4] = Intestinal tract distribution of RIF and RIFax in mice (intestinal contents, LC-MS/MS); format: in vivo; conditions: mice; for intestinal tract concentration compared with RIF: oral treatment
Description: The maximum concentration in serum (Cmax) was obtained from the original data. […] Intestinal contents were weighted, and homogenized in methanol (100 mg/ml). The homogenate was centrifuged at 14,000 rpm for 10 min at 4° C.
The mass spectrometer was operated in the turbo ion spray mode with positive ion detection. The turbo ion spray temperature was maintained at 300° C., and a voltage of 4.8 kV was applied to the sprayer needle. N2 was used as the turbo ion spray and nebulizing gas.

[5] = tested on: PXR target genes (CYP3A11, GSTA1, MRP2, OATP2); test: qPCR analysis of PXR target genes in Pxr-null mice; format: in vivo
[6] = tested on: CYP3A; test: Pharmacokinetics of MDZ in hPXR mice pretreated with RIFax; conditions: hPXR mice, RIFax 10 mg/kg/day 3 days, MDZ 2.5 mg/kg oral
Description: Blood samples were collected from suborbital veins using heparinized tubes at pre-dose, 5, 10, 20, 30, 60, and 90 min after administration of MDZ. Serum was separated by centrifugation at 8,000 g for 10 min. For MDZ and 1′-OH-MDZ extraction, 50 μl of serum was mixed with 150 μl of phosphate-buffered saline, 200 μl of ethyl acetate, and 200 μl of methyl t-butyl ether. The mixture was centrifuged at 3,000 rpm for 5 min at 4° C. The organic layer was then transferred to a new tube, dried with N2, and reconstituted in 100 μl of 70% aqueous methanol and 30% H2O containing 0.1% formic acid. […] Pharmacokinetic parameters for MDZ and 1′-OH-MDZ were estimated from the plasma concentration-time data by a non-compartmental approach using WinNonlin (Pharsight, Mountain View, Calif.). The area under the serum concentration-time curve (AUC0-90 min) was calculated by the trapezoidal rule. The maximum concentration in serum (Cmax) and its corresponding time (Tmax) were obtained from the original data.

[7] = tested on: PXR target genes (CYP3A11, GSTA1, MRP2, OATP2); test: qPCR analysis of PXR target genes in WT mice; format: in vivo, wild-type (WT) mice
[8] = biological target: T1, human PXR (Homo sapiens, UniProt O75469); test: Cell-based reporter assay, DPX2 (hepG2) cell line, luciferase; conditions: for increase in luciferase activity vs DMSO control: 24 h, DPX2 cells
T1 construct: host or cells: DPX2 (HepG2 derivative)
T1 sequence (O75469 1-434): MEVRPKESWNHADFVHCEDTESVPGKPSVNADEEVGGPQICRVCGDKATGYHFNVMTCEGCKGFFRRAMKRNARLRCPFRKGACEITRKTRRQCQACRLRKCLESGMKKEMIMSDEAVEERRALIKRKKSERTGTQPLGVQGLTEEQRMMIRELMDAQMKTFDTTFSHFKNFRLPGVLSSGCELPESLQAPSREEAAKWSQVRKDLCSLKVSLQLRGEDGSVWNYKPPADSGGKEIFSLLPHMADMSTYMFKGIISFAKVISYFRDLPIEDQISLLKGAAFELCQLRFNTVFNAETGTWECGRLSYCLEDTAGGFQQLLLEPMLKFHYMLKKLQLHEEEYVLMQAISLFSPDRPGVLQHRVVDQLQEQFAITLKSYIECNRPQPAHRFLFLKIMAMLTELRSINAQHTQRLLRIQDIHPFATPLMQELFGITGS
Description: A hepG2 cell line (DPX2) with stable expression of recombinant human PXR and a PXR-response element cloned in a luciferase vector was obtained from Puracyp Inc. (Carlsbad, Calif.). […] The cells were seeded according to the distributor's instruction. […] For cell-based reporter assay of nuclear receptors CAR, PPARα, PPARγ, and FXR, HCT116 cells were plated on 24-well plates (5×10^4 cells/well, cultured in DMEM containing 10% FBS), and transfected with the various expression vectors using Fugene transfection reagent (Roche, Indianapolis, Ind.). […] The mouse FXR vector was provided by Dr Christopher J. Sinal. […] A standard dual luciferase assay was used and normalized to a cotransfected control reporter (Promega, Madison, Wis.). Each in vitro assay was repeated at least three times.

[9] = small intestine, 25 mg/kg/day p.o. 3 days
[10] = WT mice, small intestine, 25 mg/kg/day p.o. 3 days

COC1/C=C/OC2(C)Oc3c(C)c(O)c4c(O)c(c5c(nc6cc(C)ccn65)c4c3C2=O)NC(=O)/C(C)=C\C=C\C(C)C(O)C(C)C(O)C(C)C(OC(C)=O)C1C (stereo not drawn) [RIFax, 4-Deoxy-4′-methylpyrido[1′,2′-1,2]imidazo[5,4-c]rifamycin SV]
effect on intestinal or hepatic CYP3A4 [1]: no significant effect | effect on the pharmacokinetics of MDZ and of ethinyl estradiol and norgestimate [1]: did not alter | CYP3A11, GSTA1, MRP2 and OATP2 mRNAs in small intestine ([2]; 25 mg/kg/day p.o. 3 days): all up-regulated | MRP2 in the gut ([2]; 25 mg/kg/day p.o. 3 days): only modestly induced | PXR target genes in the intestine ([2]; intestine, oral treatment): significant induction | GSTA1 in liver ([2]; liver, 25 mg/kg/day p.o. 3 days): increased | effect on hepatic PXR target genes ([2]; liver, oral treatment): no significant effect | Intestinal CYP3A11 increase compared to vehicle-treated mice [2, 9]: ~4 fold | Intestinal GSTA1 mRNA increase [2, 9]: 172% | Intestinal OATP2 mRNA increase [2, 9]: 3.4 fold | intestinal MRP2 mRNA [2, 9]: significant up-regulation | CYP3A4 in a human hepatocyte model [3]: induction | concentration in the intestinal tract (intestinal content) ([4]; 10 mg/kg single dose p.o.): up to 150 ug/g | concentration in the intestinal tract (intestinal content), molar ([4]; 10 mg/kg single dose p.o.): about 200 μM | intestinal tract concentration compared with RIF [4]: significantly higher | intestinal tract concentration compared with RIF ([4]; listed as Rifaximin): highly concentrated | concentration in the small intestine (content) ([4]; single oral dose 10 mg/kg): ~160 µg/g | time the small intestine concentration lasted following administration ([4]; single oral dose 10 mg/kg): 9 h | effect on hepatic PXR target genes ([5]; liver, oral treatment): no significant effect | Intestinal CYP3A11 expression [5, 9]: no significant change | Intestinal GSTA1 mRNA increase [5, 9]: 74% | Intestinal OATP2 mRNA [5, 9]: no significant induction | intestinal MRP2 mRNA [5, 9]: no change | Tmax of 1′-OH-MDZ in RIFax pretreated mice vs control group [6]: significantly shorter | Intestinal CYP3A11 expression [7, 10]: inhibited | Intestinal GSTA1 mRNA increase [7, 10]: 87% | Intestinal OATP2 mRNA [7, 10]: no significant induction | intestinal MRP2 mRNA [7, 10]: significantly suppressed | effect on hepatic PXR target genes ([7]; wild-type mice, liver, oral treatment): no significant effect | increase in luciferase activity vs DMSO control ([8]; 1 μM): 2.1 fold | increase in luciferase activity vs DMSO control ([8]; 10 μM): 6.7 fold | increase in luciferase activity vs DMSO control ([8]; 100 μM): 25.2 fold | pEC50 ([8]; DPX2 cell line, read-out: EC50 for activation of hPXR): ~4.70
